From patent US7915297B2, “Isoxazole derivatives and use thereof” (SK Holdings Co., Ltd., priority 2005, dated 2011)

Key:
[1] = system: Wnt/β-catenin signaling (β-catenin activity) in SW480 cell line; test: Cell-based Wnt agonist screening, TCF luciferase reporter, SW480 (TCF-FL); design: species or system human; details: % of LiCl (20 mM); for Emax at 120 µM: Con. 120 μM; for Emax at 60 µM: Con. 60 μM; for Emax at 30 µM: Con. 30 μM
From the text: (§1) In order to measure the in vitro activity of compounds of the present invention, two human cancer cell lines, HEK293 and SW480, which have intact Wnt signaling and show APC gene mutation in the Wnt signaling pathway, respectively, were used.
(§2) For evaluating the activity of wnt/β-catenin signaling in the cancer cell lines, gene as illustrated in FIG. 1 having β-catenin-binding sites of the Tcf/Lef transcriptional control protein (5 sites of TCF, 5X TCF) and having a fire fly luficerase as a marker protein ascertainable the activity of 5X TCF was introduced into the cells. Treatment with G418 led monoclones of the cell lines, in which the genes were permanently expressed, so as to construct a cell-based Wnt agonist screening system. […] For comparison with the activity of the isoxazole derivatives as Wnt agonists, lithium chloride (LiCl), acting as a positive control for the cell-based Wnt agonist screening system, was used to determine the expression level of the luciferase, and the results are shown in FIG. 3.
(§3) The cell lines, in which a cell-based Wnt agonist screening system was constructed, were cultured in RPMI 1640 media supplemented with penicillin-streptomycin (100 Units/mL) and heat-inactivated 5% fetal bovine serum under standard culture conditions (5% CO2, 37° C., 100% relative humidity). […] The suspension was diluted with the same medium to adjust the cell count to 8,000˜15,000 cells per well and was moved then in a 96-well microtiter plate. After being incubated for 24 hrs, the cells were treated with various concentrations of the isoxazole derivatives synthesized in Preparation Examples. Incubation for an additional 24 hours was followed by the quantitative analysis of luciferase activity using a Luciferase Assay kit (Promega, U.S.A.) according to the protocol described in the manual provided by the manufacturer. Data on the activities of the isoxazole derivatives thus synthesized are given in Tables 34 to 43, and are expressed as percentages relative to the activity of the positive control LiCl (20 mM), a well-known agonist of Wnt signaling.

[2] = system: ST-2, a murine bone marrow stromal T cell; test: Differentiation of ST2 cell line into osteoblasts, alkaline phosphatase activity; format: cell-based; details: Mus musculus, 96 h; ST-2 cells, 11 μM compound, 4 days; control treated only with ascorbic acid and β-glycerolphosphate = 100; read-out: ALP Activity (% Control)
Protocol: The derivatives synthesized according to the present invention were assayed for their ability to differentiate stem cells into osteoblasts. In this regard, ST-2, a murine bone marrow stromal T cell, was used to measure the activity of bone-specific alkaline phosphatase, a marker of early-stage osteoblast differentiation. In detail, the cell line was cultured in an MEM supplemented with penicillin-streptomycin (100 Units/mL) and heat-inactivated 5% fetal bovine serum under standard culture conditions (5% CO2, 37° C., 100% relative humidity). […] The suspension was diluted with the same medium to adjust the cell count to 5,000˜10,000 cells per well, and was moved in a 96-well microtiter, subsequently. After being incubated for 24 hrs, the cells were treated in a medium containing 50 μg/ml of ascorbic acid and 5 mM of β-glycerolphosphate with various concentrations of the isoxazole derivatives synthesized in Preparation Examples. During incubation for one to nine days, the Alkaline phosphatase activity was analyzed using a […] Assay kit (Promega, U.S.A.) according to the protocol described in the manual provided by the manufacturer. The activities were measured in cells which had been incubated at 11 μM of each of the compounds for 4 days. Data on the activities of the isoxazole derivatives synthesized are given in Tables 44 to 47 and are expressed as percentages of ALP relative to that measured in the control, which was treated only with ascorbic acid and β-glycerolphosphate. ALP activities according to the concentrations of Derivative (1) are depicted in FIG. 5.

[3] = system: Wnt/β-catenin signaling (β-catenin activity) in HEK293 cell line; test: Cell-based Wnt agonist screening, TCF luciferase reporter, HEK293 (TCF-FL); design: species or system human; details: % of LiCl (20 mM); for Emax at 30 µM: Conc. 30 μM; for Emax at 120 µM: Conc. 120 μM
From the text: as §1, §2, §3

[4] = Homo sapiens, 24 h, read-out: Max. Activity (%)
[5] = Homo sapiens, HEK293, 24 h, 24 h, read-out: Max. Activity (%)

| SMILES | Emax at 30 µM [3, 5] [%] | Emax at 30 µM [1, 4] [%] | also measured |
| --- | --- | --- | --- |
| O=C(NCCn1cncn1)c1cc(N2CCOCC2)on1 [Derivative (163), 5-morpholin-4-yl-isoxazole-3-carboxylic acid (2-[1,2,4]-triazol-1-yl-ethyl)-amide] | – | – | Emax at 120 µM [1, 4]: 34%; activity at 11 µM [2]: 166% |
| O=C(NCCCn1cnnn1)c1cc(-c2ccco2)on1 [Derivative (52), 5-furan-2-yl-isoxazole-3-carboxylic acid (3-tetrazol-1-yl-propyl)-amide] | – | – | activity at 11 µM [2]: 438% |
| O=C(NCCCc1ccccc1)c1cc(-c2ccco2)on1 [Derivative (6), 5-furan-2-yl-isoxazole-3-carboxylic acid (3-phenyl-propyl)-amide] | < 20 | – | Emax at 60 µM [1, 4]: 322% |
| O=C(NCCn1nccn1)c1cc(-c2ccc(F)cc2)on1 [Derivative (89), 5-(4-fluoro-phenyl)-isoxazole-3-carboxylic acid (2-[1,2,3]triazol-2-yl-ethyl)-amide] | 132 | 132 | – |
| O=C(NCCc1ccccn1)c1cc(-c2ccccc2)on1 [Derivative (70), 5-phenyl-isoxazole-3-carboxylic acid (2-pyridin-2-yl-ethyl)-amide] | – | – | Emax at 60 µM ([3]; Homo sapiens, HEK293, 24 h, 24 h, Conc. 60 μM, read-out: Max. Activity (%)): 51%; Emax at 120 µM [1, 4]: 789% |
| O=C(NCCCn1cncn1)c1cc(-c2ccc(F)cc2)on1 [Derivative (84), 5-(4-fluoro-phenyl)-isoxazole-3-carboxylic acid (3-[1,2,4]triazol-1-yl-propyl)-amide] | 907 | 907 | – |
| O=C(Nc1ccccc1O)c1cc(-c2ccco2)on1 [Derivative (2), 5-furan-2-yl-isoxazole-3-carboxylic acid (2-hydroxy-phenyl)-amide] | < 20 | < 20 | – |
| O=C(NCCc1cccnc1)c1cc(-c2ccco2)on1 [Derivative (11), 5-furan-2-yl-isoxazole-3-carboxylic acid (2-pyridin-3-yl-ethyl)-amide] | 61 | – | Emax at 60 µM [1, 4]: 625% |
| O=C(NCCCn1ccnc1)c1cc(-c2cccc(F)c2)on1 [Derivative (82), 5-(3-fluoro-phenyl)-isoxazole-3-carboxylic acid (3-imidazol-1-yl-propyl)-amide] | – | – | Emax at 120 µM [3, 5]: 67%; Emax at 120 µM [1, 4]: 67% |
| [Cl-].[Li+] [LiCl, lithium chloride, reference compound] | – | – | Max. Activity (%) ([3]; Conc. 20000 μM): 100%; Max. Activity (%) ([1]; Con. 20000 μM): 100% |
| O=C(O)c1cn(CCCNC(=O)c2cc(-c3ccco3)on2)cn1 [Derivative (59), 1-{3-[(5-furan-2-yl-isoxazole-3-carbonyl)-amino]-propyl}-1H-imidazole-4-carboxylic acid] | < 20 | – | Emax at 60 µM [1, 4]: 592% |
| O=C(NCCCn1ccnc1)c1cc(-c2ccncc2)on1 [Derivative (77), 5-pyridin-4-yl-isoxazole-3-carboxylic acid (3-imidazol-1-yl-propyl)-amide] | < 20 | < 20 | – |
| O=C(NCCCn1ccnc1)c1cc(-c2ccccc2)on1 [Derivative (68), 5-phenyl-isoxazole-3-carboxylic acid (3-imidazol-1-yl-propyl)-amide] | 47 | – | Emax at 60 µM [1, 4]: 486% |
| Nc1cccc(-c2cc(C(=O)NCCCn3ccnc3)no2)c1 [Derivative (119), 5-(3-amino-phenyl)-isoxazole-3-carboxylic acid (3-imidazol-1-yl-propyl)-amide] | < 20 | – | Emax at 120 µM [3, 5]: 43%; Emax at 120 µM [1, 4]: 43% |
| O=C(NCc1ccccn1)c1cc(-c2ccco2)on1 [Derivative (7), 5-furan-2-yl-isoxazole-3-carboxylic acid (pyridin-2-ylmethyl)-amide] | < 20 | < 20 | – |
| Nc1ccccc1NC(=O)c1cc(-c2ccco2)on1 [Derivative (3), 5-furan-2-yl-isoxazole-3-carboxylic acid (2-amino-phenyl)-amide] | < 20 | – | Emax at 40 µM ([1]; Homo sapiens, 24 h, Con. 40 μM, read-out: Max. Activity (%)): 331% |
| O=C(NCCc1ccc([N+](=O)[O-])cc1)c1cc(-c2ccco2)on1 [Derivative (27), 5-furan-2-yl-isoxazole-3-carboxylic acid [2-(4-nitro-phenyl)-ethyl]-amide] | < 20 | < 20 | – |
| O=C(NCCc1ccccc1F)c1cc(-c2ccco2)on1 [Derivative (16), 5-furan-2-yl-isoxazole-3-carboxylic acid [2-(2-fluoro-phenyl)-ethyl]-amide] | < 20 | 327 | – |
| O=C(NCCCn1ccnc1)c1cc(-c2ccccc2F)on1 [Derivative (81), 5-(2-fluoro-phenyl)-isoxazole-3-carboxylic acid (3-imidazol-1-yl-propyl)-amide] | – | – | Emax at 120 µM [3, 5]: 869%; Emax at 120 µM [1, 4]: 869% |
| O=C(NCCc1ccc(Br)cc1)c1cc(-c2ccco2)on1 [Derivative (25), 5-furan-2-yl-isoxazole-3-carboxylic acid [2-(4-bromo-phenyl)-ethyl]-amide] | < 20 | – | Emax at 120 µM [1, 4]: 223% |
| O=C(NCCCn1ncnn1)c1cc(-c2ccco2)on1 [Derivative (53), 5-furan-2-yl-isoxazole-3-carboxylic acid (3-tetrazol-2-yl-propyl)-amide] | < 20 | < 20 | – |
| O=C(NCCn1ccnc1)c1cc(-c2ccccc2)on1 [Derivative (69), 5-phenyl-isoxazole-3-carboxylic acid (2-imidazol-1-yl-ethyl)-amide] | < 20 | < 20 | – |
| O=C(NCCc1cccc(F)c1)c1cc(-c2ccco2)on1 [Derivative (17), 5-furan-2-yl-isoxazole-3-carboxylic acid [2-(3-fluoro-phenyl)-ethyl]-amide] | < 20 | – | Emax at 60 µM [1, 4]: 200% |
| Cc1cn(CCNC(=O)c2cc(-c3ccco3)on2)cn1 [Derivative (37), 5-furan-2-yl-isoxazole-3-carboxylic acid [2-(4-methyl-imidazol-1-yl)-ethyl]-amide] | – | – | Emax at 120 µM [3, 5]: 44%; Emax at 120 µM [1, 4]: 296% |
| O=C(NCCc1cccc(O)c1)c1cc(-c2ccco2)on1 [Derivative (23), 5-furan-2-yl-isoxazole-3-carboxylic acid [2-(3-hydroxy-phenyl)-ethyl]-amide] | < 20 | < 20 | – |
| O=C(NCCc1ccncc1)c1cc(-c2cccc(O)c2)on1 [Derivative (108), 5-(3-hydroxy-phenyl)-isoxazole-3-carboxylic acid (2-pyridin-4-yl-ethyl)-amide] | < 20 | – | Emax at 15 µM ([3]; Homo sapiens, HEK293, 24 h, 24 h, Conc. 15 μM, read-out: Max. Activity (%)): 600%; Emax at 15 µM ([1]; Homo sapiens, 24 h, Con. 15 μM, read-out: Max. Activity (%)): 600% |
| O=C(NCCn1ccnn1)c1cc(-c2ccc(F)cc2)on1 [Derivative (90), 5-(4-fluoro-phenyl)-isoxazole-3-carboxylic acid (2-[1,2,3]triazol-1-yl-ethyl)-amide] | 92 | 92 | – |
